ChEMBL document CHEMBL4414658, “Melongenaterpenes A-L, Vetispirane-Type Sesquiterpenoids from the Roots of Solanum melongena” (J Nat Prod, 2019)
Calls of active or inactive are those of the source.

Legend:
Format in all cases: functional, cell-based
HeLa = assay: Cytotoxicity against human HeLa cells assessed as reduction in cell viability incubated for 24 hrs by MTT assay
MCF7 = assay: Cytotoxicity against human MCF7 cells assessed as reduction in cell viability incubated for 24 hrs by MTT assay
HepG2 = assay: Cytotoxicity against human HepG2 cells assessed as reduction in cell viability incubated for 24 hrs by MTT assay

Measured: Activity

C=C(CO)[C@@H]1CC[C@]2(C1)[C@H](CO)C[C@@H](O)C[C@H]2C
inactive: all assays above

C=C(CO)[C@@H]1CC[C@]2(C1)[C@H](CO)C[C@@H](O)[C@H](O)[C@H]2C
inactive: all assays above

C=C(CO)[C@@H]1CC[C@]2(C1)[C@@H](CO)C[C@@H](O)[C@H](O)[C@H]2C
inactive: all assays above

C=C(CO[C@@H]1O[C@H](CO)[C@@H](O)[C@H](O)[C@H]1O)[C@@H]1CC[C@@]2(C1)[C@H](C)[C@@H](O)[C@H](O)C[C@H]2C(OC)OC
inactive: all assays above

C=C(CO[C@@H]1O[C@H](CO)[C@@H](O)[C@H](O)[C@H]1O)[C@@H]1CC[C@]2(C1)[C@@H](C(OC)OC)C[C@@H](O)[C@H](O)[C@H]2C
inactive: all assays above

C=C(CO[C@@H]1O[C@H](CO[C@@H]2OC[C@H](O)[C@H](O)[C@H]2O)[C@@H](O)[C@H](O)[C@H]1O)[C@@H]1CC[C@@]2(C1)C(C)=CC(=O)C[C@H]2C
inactive: all assays above
